Assay results reported in US8202969B2, “Platelet derived growth factor receptor alpha (PDGFRA) polypeptides comprising activating mutation(s)” (Oregon Health & Science University, priority 2002, dated 2012).
Counter-ions that a name gives are not always drawn.

How the values were obtained:
[1] = test system: KIT activating mutations involving the extracellular, juxtamembrane and TK1 domain; conditions: cited from earlier work
wild-type KIT = wild-type KIT (Homo sapiens, UniProt P10721); conditions: cited from earlier work
[2] = test system: KIT activation loop mutations that involve residues other than aspartic acid 816; conditions: cited from earlier work
[3] = test system: KIT D816 mutations (D816V, D816Y, D816F, D816H); conditions: or equivalent D814 residue in murine KIT; cited from earlier work
CHO cells = test: Tyrosine phosphorylation of wild-type and mutant PDGFRA transiently expressed in CHO cells (immunoblot); type: cell-based, Chinese hamster; conditions: for change of tyrosine phosphorylation by ligand stimulation: CHO cells, 100 ng/ml recombinant human PDGF-AA for 10 minutes; for baseline tyrosine phosphorylation: transient expression in CHO cells, serum starved overnight, vehicle
Experimental: FIG. 8: DGFRA mutations in GISTs result in constitutive activation of PDGFRA kinase. […] CHO cells were transiently transfected with expression vectors encoding cDNAs for wild-type or mutant PDGFRA. Transfected cells were serum starved overnight and treated with vehicle or ligand (recombinant human PDGF-AA) for 10 minutes. Whole cell lysates were immunostained sequentially for phospho-tyrosine and PDGFRA. […] In contrast, the mutant PDGFRA proteins display ligand-independent phosphorylation.
PDGFRA mutations were cloned by site-directed mutagenesis of the wild type PDGFRA cDNA. CHO cells were transiently transfected with expression vectors encoding for mutant or wild-type PDGFRA cDNA. Transfected cells were serum starved overnight and stimulated with vehicle or 100 ng/ml recombinant human PDGF-AA for 10 minutes before harvesting cells and preparing whole cell lysates for immunoblotting. The membranes were sequentially immunoblotted with antiserum against phosphorylated tyrosines (PY20 Transduction Laboratories) or total PDGFRA (Santa Cruz sc-338).

Chain of wild-type KIT (P10721 26-976): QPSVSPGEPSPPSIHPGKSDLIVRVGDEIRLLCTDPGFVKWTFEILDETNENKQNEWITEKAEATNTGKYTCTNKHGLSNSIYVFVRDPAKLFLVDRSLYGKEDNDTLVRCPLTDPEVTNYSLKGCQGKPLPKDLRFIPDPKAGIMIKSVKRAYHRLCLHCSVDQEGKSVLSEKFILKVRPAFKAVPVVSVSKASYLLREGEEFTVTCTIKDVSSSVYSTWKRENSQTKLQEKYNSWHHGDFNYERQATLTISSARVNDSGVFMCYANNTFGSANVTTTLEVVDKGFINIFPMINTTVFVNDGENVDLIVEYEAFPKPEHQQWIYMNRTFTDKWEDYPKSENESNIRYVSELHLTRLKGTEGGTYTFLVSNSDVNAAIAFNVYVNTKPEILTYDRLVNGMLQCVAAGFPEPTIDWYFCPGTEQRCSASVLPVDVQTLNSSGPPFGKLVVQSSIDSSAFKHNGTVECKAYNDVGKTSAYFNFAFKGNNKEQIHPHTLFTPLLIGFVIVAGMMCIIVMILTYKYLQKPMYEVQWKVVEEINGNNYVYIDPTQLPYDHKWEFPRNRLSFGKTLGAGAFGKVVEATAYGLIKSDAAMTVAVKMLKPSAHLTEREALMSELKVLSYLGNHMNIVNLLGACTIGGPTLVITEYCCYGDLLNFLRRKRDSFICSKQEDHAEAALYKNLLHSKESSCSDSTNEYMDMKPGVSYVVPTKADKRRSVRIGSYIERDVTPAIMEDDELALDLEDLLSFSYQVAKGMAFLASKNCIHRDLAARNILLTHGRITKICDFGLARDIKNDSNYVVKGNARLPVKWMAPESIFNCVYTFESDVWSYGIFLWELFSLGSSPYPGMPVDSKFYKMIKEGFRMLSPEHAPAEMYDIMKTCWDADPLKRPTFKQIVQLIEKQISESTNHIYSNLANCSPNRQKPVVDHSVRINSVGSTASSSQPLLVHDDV

Cc1ccc(NC(=O)c2ccc(CN3CCN(C)CC3)cc2)cc1Nc1nccc(-c2cccnc2)n1 [imatinib mesylate]
activity against KIT activating mutations involving the extracellular, juxtamembrane and TK1 domain [1]: highly active | activity against the kinase activity of wild-type KIT (wild-type KIT): highly active | activity against other KIT activation loop mutations [2]: some activity | activity against KIT D816 mutations [3]: no clinically useful activity

non-mutant PDGFRA: human PDGFRA protein, SEQ ID NO: 2
change of tyrosine phosphorylation by ligand stimulation (CHO cells): substantially increased | change of tyrosine phosphorylation by ligand stimulation (CHO cells; listed as Wild type PDGFRA): upregulated | baseline tyrosine phosphorylation (CHO cells): weak | baseline tyrosine phosphorylation (CHO cells; listed as Wild type PDGFRA): low-level phosphorylation
